The values that follow come from US8003785B2 (Takeda Pharmaceutical Company Limited, priority 2008, dated 2011).

The IC50 is the concentration at which inhibition is half-maximal. Lower therefore signals inhibition by little substance.

The structures appear in SMILES notation.

For one experiment, the target named is T1, PLK1 (Homo sapiens, UniProt P53350).
T1 construct: Full-length, active GST-PLK1 is purified from Sf9 insect cells; made in house; host or cells: Sf9 insect cells
T1 sequence (P53350 whole entry): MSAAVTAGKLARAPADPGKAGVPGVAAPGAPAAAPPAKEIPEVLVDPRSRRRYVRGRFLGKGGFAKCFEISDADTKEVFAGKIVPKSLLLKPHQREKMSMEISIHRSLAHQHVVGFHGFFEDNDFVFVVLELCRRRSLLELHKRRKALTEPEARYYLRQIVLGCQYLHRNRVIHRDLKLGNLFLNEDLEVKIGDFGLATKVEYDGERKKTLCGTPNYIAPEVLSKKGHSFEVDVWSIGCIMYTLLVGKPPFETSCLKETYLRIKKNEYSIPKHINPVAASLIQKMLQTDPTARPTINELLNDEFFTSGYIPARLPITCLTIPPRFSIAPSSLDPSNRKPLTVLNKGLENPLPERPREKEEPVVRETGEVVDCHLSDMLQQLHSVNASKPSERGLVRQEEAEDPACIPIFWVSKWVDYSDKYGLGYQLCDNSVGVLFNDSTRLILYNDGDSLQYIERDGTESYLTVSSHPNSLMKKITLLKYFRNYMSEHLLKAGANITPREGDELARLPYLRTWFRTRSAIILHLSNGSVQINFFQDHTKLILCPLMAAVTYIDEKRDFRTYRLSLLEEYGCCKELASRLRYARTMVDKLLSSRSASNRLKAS
The experiment can be described thus: Biochemical Characterization Assay: HTRF kinase assay, GST-PLK1 phosphorylation of GST-p53. To be noted: GST-PLK1, GST-p53 substrate. The essentials: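 Full-length active GST-PLK1 (Sf9, 3 ug/mL) phosphorylated full-length GST-p53 (E. coli) in Kinase Assay Buffer for 35 min at 37 °C. Stopped with EDTA; phospho-p53 detected by HTRF with anti-phospho-p53, Eu-anti-rabbit and APC-anti-GST antibodies.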
Regarding `CCN1C(=O)C(F)(F)CN(C2CCCC2)c2nc(Nc3ccc(C(=O)NC4CCN(C)CC4)cc3OC)ncc21` [Example I-159, 4-(9-cyclopentyl-5-ethyl-7,7-difluoro-6-oxo-6,7,8,9-tetrahydro-5H-pyrimido[4,5-b][1,4]diazepin-2-ylamino)-3-methoxy-N-(1-methyl-piperidin-4-yl)-benzamide], the concentration for half-maximal inhibition (IC50) was 51 to 500 nM.

In the case of `CCN1C(=O)C(F)(F)CN(C2CCCC2)c2nc(Nc3ccc(C(=O)NCCCN(C)C)cc3OC)ncc21` [Example I-160, 4-(9-cyclopentyl-5-ethyl-7,7-difluoro-6-oxo-6,7,8,9-tetra-hydro-5H-pyrimido[4,5-b][1,4]diazepin-2-ylamino)-N-(3-dimethylamino-propyl)-3-methoxy-benzamide], the IC50 fell in the range of 51 to 500 nM.

The molecule `CCN1C(=O)C(F)(F)CN(C2CCCC2)c2nc(Nc3ccc(C(=O)NC4CCOCC4)cc3OC)ncc21` [Example I-161, 4-(9-cyclopentyl-5-ethyl-7,7-difluoro-6-oxo-6,7,8,9-tetrahydro-5H-pyrimido[4,5-b][1,4]diazepin-2-ylamino)-3-methoxy-N-(tetrahydro-pyran-4-yl)-benzamide] registered an IC50 of 500 to 5000 nM.

For `CCCN1C(=O)C(F)(F)CN(C2CCCC2)c2nc(Nc3ccc(C(N)=O)cc3OC)ncc21` [Example I-163, 4-(9-cyclopentyl-7,7-difluoro-6-oxo-5-propyl-6,7,8,9-tetrahydro-5H-pyrimido[4,5-b][1,4]diazepin-2-ylamino)-3-methoxy-benzamide], the IC50 lay within 500 to 5000 nM.

For `CCCN1C(=O)C(F)(F)CN(C2CCCC2)c2nc(Nc3ccc(C(=O)NC)cc3OC)ncc21` [Example I-164, 4-(9-cyclopentyl-7,7-difluoro-6-oxo-5-propyl-6,7,8,9-tetrahydro-5H-pyrimido[4,5-b][1,4]diazepin-2-ylamino)-3-methoxy-N-methyl-benzamide], the IC50 was in the range of 500 to 5000 nM.

Molecule `CCCN1C(=O)C(F)(F)CN(C2CCCC2)c2nc(Nc3ccc(C(=O)NC4CCN(C)CC4)cc3OC)ncc21` [Example I-165, 4-(9-cyclopentyl-7,7-difluoro-6-oxo-5-propyl-6,7,8,9-tetrahydro-5H-pyrimido[4,5-b][1,4]diazepin-2-ylamino)-3-methoxy-N-(1-methyl-piperidin-4-yl)-benzamide] gave an IC50 of 51 to 500 nM.

Still in this experiment, the particulars now being: GST-PLK1, GST-p53 substrate, ATP.
The molecule `CCN1C(=O)C(F)(F)CN(C2CCCC2)c2nc(Nc3ccc(C(=O)NCCCN(C)C)cc3)ncc21` [Example I-142, 4-(9-cyclopentyl-5-ethyl-7,7-difluoro-6-oxo-6,7,8,9-tetrahydro-5H-pyrimido[4,5-b][1,4]diazepin-2-yl-amino)-N-(3-dimethyl-amino-propyl)-benzamide] had an IC50 of 500 to 5000 nM.

In turn, `CCN1C(=O)C(F)(F)CN(C2CCCC2)c2nc(Nc3ccc(C(=O)NC4CCOCC4)cc3)ncc21` [Example I-143, 4-(9-cyclopentyl-5-ethyl-7,7-difluoro-6-oxo-6,7,8,9-tetrahydro-5H-pyrimido[4,5-b][1,4]diazepin-2-ylamino)-N-(tetrahydro-pyran-4-yl)-benzamide] came in with an IC50 of 500 to 5000 nM.

Molecule `CCCN1C(=O)C(F)(F)CN(C2CCCC2)c2nc(Nc3ccc(C(N)=O)cc3)ncc21` [Example I-145, 4-(9-cyclopentyl-7,7-difluoro-6-oxo-5-propyl-6,7,8,9-tetrahydro-5H-pyrimido[4,5-b][1,4]diazepin-2-ylamino)-benzamide] came in with an IC50 of 500 to 5000 nM.

In the case of `CCCN1C(=O)C(F)(F)CN(C2CCCC2)c2nc(Nc3ccc(C(=O)NC)cc3)ncc21` [Example I-146, 4-(9-cyclopentyl-7,7-difluoro-6-oxo-5-propyl-6,7,8,9-tetrahydro-5H-pyrimido[4,5-b][1,4]diazepin-2-ylamino)-N-methyl-benzamide], the concentration for half-maximal inhibition (IC50) was in the range of 500 to 5000 nM.

`CCCN1C(=O)C(F)(F)CN(C2CCCC2)c2nc(Nc3ccc(C(=O)NC4CCN(C)CC4)cc3)ncc21` [Example I-147, 4-(9-cyclopentyl-7,7-difluoro-6-oxo-5-propyl-6,7,8,9-tetrahydro-5H-pyrimido[4,5-b][1,4]diazepin-2-ylamino)-N-(1-methyl-piperidin-4-yl)-benzamide] had an IC50 of 51 to 500 nM.

Molecule `CCCN1C(=O)C(F)(F)CN(C2CCCC2)c2nc(Nc3ccc(C(=O)NCCCN(C)C)cc3)ncc21` [Example I-148, 4-(9-cyclopentyl-7,7-difluoro-6-oxo-5-propyl-6,7,8,9-tetrahydro-5H-pyrimido[4,5-b][1,4]diazepin-2-yl-amino)-N-(3-dimethyl-amino-propyl)-benzamide] returned an IC50 of 500 to 5000 nM.

Consider `CCCN1C(=O)C(F)(F)CN(C2CCCC2)c2nc(Nc3ccc(C(=O)NC4CCOCC4)cc3)ncc21` [Example I-149, 4-(9-cyclopentyl-7,7-difluoro-6-oxo-5-propyl-6,7,8,9-tetrahydro-5H-pyrimido[4,5-b][1,4]diazepin-2-ylamino)-N-(tetrahydro-pyran-4-yl)-benzamide], for which the IC50 lay in the range of 500 to 5000 nM.

Molecule `COc1cc(C(=O)NC2CCN(C)CC2)ccc1Nc1ncc2c(n1)N(C1CCCC1)CC(F)(F)C(=O)N2CC(F)(F)F` [Example I-150, 4-[9-cyclopentyl-7,7-difluoro-6-oxo-5-(2,2,2-trifluoro-ethyl)-6,7,8,9-tetrahydro-5H-pyrimido[4,5-b][1,4]diazepin-2-ylamino]-3-methoxy-N-(1-methyl-piperidin-4-yl)-benzamide] had an IC50 of 500 to 5000 nM.

In turn, `COc1cc(C(N)=O)ccc1Nc1ncc2c(n1)N(C1CCCC1)CC(F)(F)C(=O)N2` [Example I-152, 4-(9-cyclopentyl-7,7-difluoro-6-oxo-6,7,8,9-tetrahydro-5H-pyrimido[4,5-b][1,4]diazepin-2-ylamino)-3-methoxy-benzamide] gave an IC50 of 500 to 5000 nM.

Turning to `CNC(=O)c1ccc(Nc2ncc3c(n2)N(C2CCCC2)CC(F)(F)C(=O)N3)c(OC)c1` [Example I-153, 4-(9-cyclopentyl-7,7-difluoro-6-oxo-6,7,8,9-tetrahydro-5H-pyrimido[4,5-b][1,4]diazepin-2-ylamino)-3-methoxy-N-methyl-benzamide], the IC50 lay in the range of 500 to 5000 nM.

In turn, `COc1cc(C(=O)NCCCN(C)C)ccc1Nc1ncc2c(n1)N(C1CCCC1)CC(F)(F)C(=O)N2` [Example I-154, 4-(9-cyclopentyl-7,7-difluoro-6-oxo-6,7,8,9-tetrahydro-5H-pyrimido[4,5-b][1,4]diazepin-2-ylamino)-N-(3-dimethylamino-propyl)-3-methoxy-benzamide] came in with an IC50 of 500 to 5000 nM.

As to `COc1cc(C(=O)NC2CCOCC2)ccc1Nc1ncc2c(n1)N(C1CCCC1)CC(F)(F)C(=O)N2` [Example I-155, 4-(9-cyclopentyl-7,7-difluoro-6-oxo-6,7,8,9-tetrahydro-5H-pyrimido[4,5-b][1,4]diazepin-2-ylamino)-3-methoxy-N-(tetrahydro-pyran-4-yl)-benzamide], the IC50 was above 5000 nM.

Consider `CCN1C(=O)C(F)(F)CN(C2CCCC2)c2nc(Nc3ccc(C(N)=O)cc3OC)ncc21` [Example I-157, 4-(9-cyclopentyl-5-ethyl-7,7-difluoro-6-oxo-6,7,8,9-tetrahydro-5H-pyrimido[4,5-b][1,4]diazepin-2-yl-amino)-3-methoxy-benzamide], for which the IC50 fell in the range of 500 to 5000 nM.

`CCN1C(=O)C(F)(F)CN(C2CCCC2)c2nc(Nc3ccc(C(=O)NC)cc3OC)ncc21` [Example I-158, 4-(9-cyclopentyl-5-ethyl-7,7-difluoro-6-oxo-6,7,8,9-tetrahydro-5H-pyrimido[4,5-b][1,4]diazepin-2-ylamino)-3-methoxy-N-methyl-benzamide] had a 50% inhibitory concentration (IC50) of 500 to 5000 nM.
